In patent US8519188B2, “Compounds which can be used for the treatment of cancers” (Marc-Henry Pitty, priority 2008, dated 2013):
Where a SMILES comes first, the peptide text is derived from it. [ ]: non-standard residue; d: D form. The star is where a group is joined. ξ: configuration not given here. ξV = CC(C)C(N)C(=O)O; BrAc = O=C(CBr)*

Key:
[1] = tested on: HL-60 acute promyelocytic leukaemia cell line; test: Cell proliferation (CellTiter 96 AQueous MTS/PMS), HL-60; type: cell-based, human; settings: for IC50: Homo sapiens, HL-60, 72 hours of incubation, read-out: CI50 for various cell lines (nM) HL-60
Protocol: (§1) The effects of the compounds of the invention on the proliferation of cancer cells were studied on various human cancer cell lines of various tissue origins (MCF-7: breast cancer, MCF-7/adr adriamycin-resistant breast cancer, ARH-77: myeloma, ARH-77/Dox: doxorubicin (other name for adriamycin)-resistant myeloma, HL-60: acute promyelocytic leukaemia, HL-60/R10: doxorubicin-resistant acute promyelocytic leukaemia). The cancer cells used for this study were incubated at 37° C. in the presence of one of the compounds of the invention added to the culture medium at various concentrations.
(§2) The cancer cell lines originate from the ATCC (American Type Culture Collection) in the case of MCF-7, ARH-77 and HL-60, from Pharmacell (Paris, France) for HL-60/R10, from Oncodesign (Dijon, France) for ARH-77/Dox and from the Pitié Salpetrière Hospital for MCF-7/adr. They were cultivated in a RPMI 1640 medium containing 2 mM L-glutamine and supplemented with 10% foetal calf serum. All the cell lines were maintained in culture at 37° C. in a moist atmosphere containing 5% CO2. Cell proliferation was evaluated using the “CellTiter 96® AQueous” reagent (Promega, Wis., USA) while adhering to the manufacturer's instructions. The cells were seeded in 96-well culture plates in a proportion of from 5,000 to 10,000 cells per well in 200 μl of culture medium. After 24 hours of preincubation at 37° C., the compounds of the invention dissolved in dimethyl sulphoxide (DMSO) were added individually to each of the wells in a proportion of 2 μl per well. After 72 hours of incubation at 37° C. in a moist atmosphere containing 5% CO2, 40 μL of a MTS/PMS ([3-(4,5-dimethylthiazol-2-yl)-5-(3-carboxymethoxyphenyl)-2-(4-sulphophenyl)-2H-tetrazolium phenazine methosulphate) solution were added to each well.

[2] = tested on: MCF-7/adr adriamycin-resistant breast cancer cell line; test: Cell proliferation (CellTiter 96 AQueous MTS/PMS), MCF-7/adr; type: cell-based; settings: for IC50: Homo sapiens, NCI/ADR-RES, MCF-7/adr, 72 hours of incubation, concentration that induces the death of 50% of the cells, read-out: CI50 for various cell lines (nM) MCF-7/adr
Protocol: as §1, §2

[3] = tested on: HL-60/R10 doxorubicin-resistant acute promyelocytic leukaemia cell line; test: Cell proliferation (CellTiter 96 AQueous MTS/PMS), HL-60/R10; type: cell-based, human; settings: for IC50: Homo sapiens, HL-60/R10, 72 hours of incubation, read-out: CI50 for various cell lines (nM) HL-60/R10
Protocol: as §1, §2

[4] = tested on: MCF-7 breast cancer cell line; test: Cell proliferation (CellTiter 96 AQueous MTS/PMS), MCF-7; type: cell-based; settings: MCF7; for IC50: Homo sapiens, MCF-7, 72 hours of incubation, concentration that induces the death of 50% of the cells, read-out: CI50 for various cell lines (nM) MCF-7
Protocol: as §1, §2

[5] = tested on: ARH-77/Dox doxorubicin-resistant myeloma cell line; test: Cell proliferation (CellTiter 96 AQueous MTS/PMS), ARH-77/Dox; type: cell-based; settings: Homo sapiens, 72 hours of incubation, read-out: CI50 for various cell lines (nM) ARH-77/Dox
Protocol: as §1, §2

[6] = tested on: ARH-77 myeloma cell line; test: Cell proliferation (CellTiter 96 AQueous MTS/PMS), ARH-77; type: cell-based; settings: Homo sapiens, 72 hours of incubation, read-out: CI50 for various cell lines (nM) ARH-77
Protocol: as §1, §2

| SMILES | IC50 [1] | IC50 [2] | IC50 [3] | IC50 [5] | IC50 [6] | IC50 [4] | other results |
| --- | --- | --- | --- | --- | --- | --- | --- |
| CC(C)C(NC(=O)CBr)C(=O)NCC(=O)O (stereo not shown) [BADLG, reference compound] (BrAc-[ξV]-Gly-OH) | – | – | – | – | – | – | cytotoxic activity (concentration at which detected) ([1]; HL60, no cytotoxic activity detected for concentrations below 10 μM, same conditions as above): ≥ 10 µM; cytotoxic activity (concentration at which detected) ([2]; MCF7/adr, no cytotoxic activity detected for concentrations below 10 μM, same conditions as above): ≥ 10 µM; cytotoxic activity (concentration at which detected) ([3]; HL60/R10, no cytotoxic activity detected for concentrations below 10 μM, same conditions as above): ≥ 10 µM; cytotoxic activity (concentration at which detected) ([4]; no cytotoxic activity detected for concentrations below 10 μM, same conditions as above): ≥ 10 µM |
| C#CC(=O)N(c1cccc(C(F)(F)F)c1)C(C(=O)NCc1ccccc1)c1cccs1 (stereo not shown) [Compound 1, Propynoic Acid (benzylcarbamoylthiophen-2-yl-methyl)-(3-trifluoromethylphenyl)amide] | 1340 nM | 1.6 nM | 32 nM | 12 nM | 46 nM | 224 nM | – |
| C#CC(=O)N(c1ccc(C(F)(F)F)cc1)C(C(=O)NC1CCCCC1)c1cccs1 (stereo not shown) [Compound 2, Propynoic Acid (cyclohexylcarbamoylthiophen-2-yl-methyl)-(4-trifluoromethylphenyl)amide] | 2080 nM | 0.7 nM | 95 nM | 6 nM | 92 nM | 150 nM | – |
| C#CC(=O)N(c1cccc(C(F)(F)F)c1)C(C(=O)NC1CCCCC1)c1cccs1 (stereo not shown) [Compound 3, Propynoic Acid (cyclohexylcarbamoylthiophen-2-yl-methyl)-(3-trifluoromethylphenyl)amide] | 2960 nM | 2.6 nM | 46 nM | 5 nM | 58 nM | 275 nM | – |
| C#CC(=O)N(c1ccc(C(F)(F)F)cc1)C(C(=O)NCc1ccccc1)c1cccs1 (stereo not shown) [Compound 4, Propynoic Acid (benzylcarbamoylthiophen-2-yl-methyl)-(4-trifluoromethylphenyl)amide] | 1630 nM | 0.9 nM | 76 nM | 25 nM | 103 nM | – | – |
| C#CC(=O)N(c1cccc(C(F)(F)F)c1)C(C(=O)NCc1ccccc1)c1ccc(C)s1 (stereo not shown) [Compound 21, Propynoic Acid [benzylcarbamoyl-(5-methylthiophen-2-yl)-methyl]-(3-trifluoromethylphenyl)amide] | 2020 nM | – | 43 nM | 6 nM | 60 nM | – | – |
| COc1ccc(CNC(=O)C(C)(C)N(C(=O)CCl)c2ccc(F)cc2)cc1 [Compound 186, 2-[(2-Chloro-acetyl)-(4-fluoro-phenyl)-amino]-N-(4-methoxy-benzyl)-2-methyl-propionamide] | 362 nM | – | 78 nM | – | – | – | – |
| Cc1c(Cl)cccc1N(C(=O)CCl)C(C)(C)C(=O)NCc1ccc(F)cc1 [Compound 188, 2-[(2-Chloro-acetyl)-(3-chloro-2-methyl-phenyl)-amino]-N-(4-fluoro-benzyl)-2-methyl-propionamide] | 2500 nM | – | 176 nM | – | – | – | – |
| CN1CCN(CCCOc2ccc(C(C(=O)NC3CCCCC3)N(C(=O)CCl)c3cccc(C(C)(C)C)c3)cc2)CC1 (stereo not shown) [Compound 189, 2-[(3-tert-Butyl-phenyl)-(2-chloro-acetyl)-amino]-N-cyclohexyl-2-[4-[3-(4-methyl-piperazin-1-yl)-propoxy]-phenyl]-acetamide] | – | 72 nM | – | – | – | 360 nM | – |
| CC(C)c1ccc(N(C(=O)CCl)C(C(=O)NC2CCCCC2)c2ccc(OCCCN3CCN(C)CC3)cc2)c(F)c1 (stereo not shown) [Compound 192, 2-[(2-Chloro-acetyl)-(2-fluoro-4-isopropyl-phenyl)-amino]-N-cyclohexyl-2-{4-[3-(4-methyl-piperazin-1-yl)-propoxy]-phenyl}-acetamide] | 524 nM | – | 140 nM | – | – | – | – |
| O=C(C(c1cccs1)N(C(=O)CCl)c1cccc(C(F)(F)F)c1)N1CCN(C2CCCCC2)CC1 (stereo not shown) [Compound 197] | – | 37 nM | – | – | – | 1380 nM | – |
| O=C(OCc1ccccc1)N1CCN(C(=O)C(c2cccs2)N(C(=O)CCl)c2cccc(C(F)(F)F)c2)CC1 (stereo not shown) [Compound 198, 4-{2-[(2-chloro-acetyl)-(3-trifluoromethyl-phenyl)-amino]-2-thiophen-2-yl-acetyl}-piperazine-1-carboxylic acid benzyl ester] | – | 55 nM | – | – | – | 1080 nM | – |
| CC(C)c1cccc(N(C(=O)CCl)C(C(=O)N2CCN(C3CCCCC3)CC2)c2cccs2)c1 (stereo not shown) [Compound 199] | – | 23 nM | – | – | – | 1860 nM | – |
| CN(C(=O)N1CCN(C(=O)C(c2cccs2)N(C(=O)CCl)c2cccc(C(F)(F)F)c2)CC1)c1ccccc1 (stereo not shown) [Compound 204, 4-{2-[(2-Chloroacetyl)-(3-trifluoromethylphenyl)-amino]-2-thiophen-2-yl-acetyl}piperazine-1-carboxylic acid methylphenyl-amide] | – | 89 nM | – | – | – | 741 nM | – |
| O=C(OCc1ccccc1)N1CCN(C(=O)C(c2cccs2)N(C(=O)CCl)c2ccc(Oc3ccccc3)cc2)CC1 (stereo not shown) [Compound 206] | – | 38 nM | – | – | – | 2500 nM | – |
